In brackets after ≈: the same amount, converted by molar mass.

The subject of one assay is Staphylococcus aureus Smith. Put plainly: MIC assay, modified agar dilution (CLSI), S. aureus Smith. Type of assay: cell-based. The note with it: Staphylococcus aureus, agar dilution, 35° C., 16-20 hr; lowest concentration that completely inhibited growth; read-out: S_aureus_Smith_WT_MIC. The gist of the method: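 Agar dilution per CLSI on Mueller Hinton agar (plus 5% horse blood for S. pneumoniae and E. faecium), compound 128 to 0.001 μg/mL in two-fold steps. Spots of ~1×10^4 CFU incubated at 35 °C for 16-20 hr before MIC scoring.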
On the technique in general: Agar dilution tests growth on a series of plates holding different concentrations.
Regarding `COc1ccc2ncc(F)c(C[C@@H](O)C34CCC(NCc5ncc6c(n5)OCCO6)(CC3)CO4)c2n1` [Example 145, (R)-1-(4-((6,7-Dihydro-[1,4]dioxino[2,3-d]pyrimidin-2-yl)methylamino)-2-oxabicyclo[2.2.2]octan-1-yl)-2-(3-fluoro-6-methoxy-1,5-naphthyridin-4-yl)ethanol], the MIC stood at 0.25 µg/mL (≈ 0.502 µM).
With `COc1ccc2ncc(F)c(CCC34CCC(NCc5ccc6c(n5)OCCO6)(CC3)CO4)c2n1` [Example 146, N-((2,3-Dihydro-[1,4]dioxino[2,3-b]pyridin-6-yl)methyl)-1-(2-(3-fluoro-6-methoxy-1,5-naphthyridin-4-yl)ethyl)-2-oxabicyclo[2.2.2]octan-4-amine], the MIC was determined as 0.125 µg/mL (≈ 0.26 µM).
The same measure, in the same setting: the value for `COc1ccc2ncc(F)c(CC(O)C34CCC(NCc5ccc6c(n5)OCCO6)(CC3)CO4)c2n1` (centres unmarked) [Example 147, 1-(4-((2,3-Dihydro-[1,4]dioxino[2,3-b]pyridin-6-yl)methylamino)-2-oxabicyclo[2.2.2]octan-1-yl)-2-(3-fluoro-6-methoxy-1,5-naphthyridin-4-yl)ethanol] was 0.125 µg/mL (≈ 0.252 µM); that for `COc1ccc2ncc(F)c(CC(O)C34CCC(NCc5cc6c(cn5)OCC(=O)N6)(CC3)CO4)c2n1` (centres unmarked) [Example 149, 7-((1-(2-(3-Fluoro-6-methoxy-1,5-naphthyridin-4-yl)-1-hydroxyethyl)-2-oxabicyclo[2.2.2]octan-4-ylamino)methyl)-1H-pyrido[3,4-b][1,4]oxazin-2(3H)-one] was 0.063 µg/mL (≈ 0.124 µM).
Regarding `COc1cc(OC)c2nccc(CCC34CCC(NCc5ccc6c(n5)NC(=O)CO6)(CC3)CO4)c2n1` [Example 150, 6-((1-(2-(6,8-Dimethoxy-1,5-naphthyridin-4-yl)ethyl)-2-oxabicyclo[2.2.2]octan-4-ylamino)methyl)-2H-pyrido[3,2-b][1,4]oxazin-3(4H)-one], the MIC is 0.5 µg/mL (≈ 0.989 µM).
On to `COc1ccc2ccc(F)c(CCC34CCC(NCc5ccc6c(n5)NC(=O)CO6)(CC3)CO4)c2n1` [Example 153, 6-((1-(2-(7-Fluoro-2-methoxyquinolin-8-yl)ethyl)-2-oxabicyclo[2.2.2]octan-4-ylamino)methyl)-2H-pyrido[3,2-b][1,4]oxazin-3(4H)-one], for which the MIC was found to be 0.063 µg/mL (≈ 0.128 µM).
Same read-out and setting: the value for `CN(C)c1nc2c(CCC34CCC(NCc5ccc6c(n5)NC(=O)CO6)(CC3)CO4)ccnc2cc1F` [Example 154, 6-((1-(2-(6-(Dimethylamino)-7-fluoro-1,5-naphthyridin-4-yl)ethyl)-2-oxabicyclo[2.2.2]octan-4-ylamino)methyl)-2H-pyrido[3,2-b][1,4]oxazin-3(4H)-one] was 1 µg/mL (≈ 1.97 µM).
As for `COc1ccc2ncc(F)c(CCC34CCC(NCc5ccc6c(n5)NC(=O)CS6)(CC3)CO4)c2n1` [Example 155, 6-((1-(2-(3-Fluoro-6-methoxy-1,5-naphthyridin-4-yl)ethyl)-2-oxabicyclo[2.2.2]octan-4-ylamino)methyl)-2H-pyrido[3,2-b][1,4]thiazin-3(4H)-one], the MIC amounted to 0.016 µg/mL (≈ 0.0314 µM).
Turning to `COc1ccc2ncc(F)c(CC(O)C34CCC(NCc5ccc6c(n5)NC(=O)CS6)(CC3)CO4)c2n1` (centres unmarked) [Example 156, 6-((1-(2-(3-Fluoro-6-methoxy-1,5-naphthyridin-4-yl)-1-hydroxyethyl)-2-oxabicyclo[2.2.2]octan-4-ylamino)methyl)-2H-pyrido[3,2-b][1,4]thiazin-3(4H)-one], the MIC amounted to 0.063 µg/mL (≈ 0.12 µM).
As for `COc1ccc2ncc(F)c(CC(F)C34CCC(NCc5ccc6c(n5)NC(=O)CO6)(CC3)CO4)c2n1` (centres unmarked) [Example 157a, 6-[({1-[1-Fluoro-2-(3-fluoro-6-methoxy-1,5-naphthyridin-4-yl)ethyl]-2-oxabicyclo[2.2.2]oct-4-yl}amino)methyl]-2H-pyrido[3,2-b][1,4]oxazin-3(4H)-one], the MIC was determined as 2 µg/mL (≈ 3.91 µM).

The assay is the same for the next values; noted with them: agar dilution, 35° C., 16-20 hr; lowest concentration that completely inhibited growth.
`COc1ccc2ncc(F)c(CCC34CCC(NCc5cc6c(cn5)OCC(=O)N6)(CC3)CO4)c2n1` [Example 148, 7-((1-(2-(3-Fluoro-6-methoxy-1,5-naphthyridin-4-yl)ethyl)-2-oxabicyclo[2.2.2]octan-4-ylamino)methyl)-1H-pyrido[3,4-b][1,4]oxazin-2(3H)-one] yielded a S_aureus_Smith_WT_MIC of 0.0310 µg/mL.
